According to US20260061191A1, “Using Alternating Electric Fields to Increase Cell Membrane Permeability” (The Board of Trustees of the Leland Stanford Junior …, priority 2018, published 2026):

Tests used:
[1] = test system: U87-MG cells on PCS-201 fibroblasts co-culture; assay: 5-ALA uptake (PpIX fluorescence), U87-MG GBM on PCS-201 fibroblast co-cultures; format: cell-based, human
U87-MG cells [2] = assay: 5-ALA uptake (PpIX fluorescence), single U87-MG culture; format: cell-based, human
Experimental: Experiments were performed to determine the effects of TTFields on uptake of 5-ALA (as measured by PpIX accumulation and its resultant fluorescence) in glioblastoma cells. Because it is difficult to distinguish the margin between tumor and normal cells using the present 5-ALA bioassay, the measurement of PpIX fluorescence was used to address this issue. Investigations were run to determine whether permeation of 5-ALA through the cellular membrane and into the glioblastoma cells could be increased with TTFields exposure. U87-MG cells were exposed or unexposed to TTFields, each for durations of 6-24 h.
All monovariant statistical comparisons between no TTFields vs. TTFields samples done by Student's t-test for n=3 experiments per time point.

GBM39/Luc cells = assay: Drug sensitivity / synergy with TTFields; format: cell-based, human
[3] = test system: MDA-MB-435 cells, doxorubicin resistant; assay: Intracellular accumulation of doxorubicin under alternating electric field; conditions: 150 kHz, 1.62 V/cm, 23 hours, then 10 μM doxorubicin for one hour with field; vs no field
Experimental: (§1) In this experiment, both wild type and doxorubicin resistant variants of MDA-MB-435 cells were treated with an alternating electric field at 150 kHz with a field strength of 1.62 V/cm for 23 hours. After this 23 hour period, doxorubicin at a concentration of 10 μM was added and incubated for one hour, during which time the alternating electric fields was continued. The intracellular accumulation of doxorubicin was then measured.

[4] = test system: MDA-MB-435 cells, wild type; assay: as above; conditions: 150 kHz, 1.62 V/cm, 23 hours, then 10 μM doxorubicin for one hour with field; vs no field
Experimental: as §1

MES-SA cells = assay: Intracellular accumulation of doxorubicin under 150 kHz alternating electric field; conditions: 1.62 V/cm RMS, 24 hours, 10 μM doxorubicin for the last hour
Experimental: In this experiment, MES-SA cells were treated with an alternating electric field at 150 kHz with a field strength of 1.62 V/cm RMS for 24 hours. After the first 23 hours, doxorubicin at a concentration of 10 μM was added and incubated for one hour during which time the alternating electric fields was continued (to complete the 24 hour period). The intracellular accumulation of doxorubicin was then measured.

MDA-MB-235 cells = assay: Drug sensitivity / synergy with TTFields; format: cell-based
human glioblastoma cells = assay: Growth inhibition by TTFields in conjunction with Withaferin A; format: cell-based; conditions: TTFields treatment in conjunction with Withaferin A
Text: In this figure, 5-ALA=5-aminolevulinic acid; Ethidium D=ethidium bromide; and FITC=fluorescein isothiocyanate.

U87-MG/GFP-Luc cells = assay: Drug sensitivity / synergy with TTFields; format: cell-based, human
U87-MG/eGFP-fLuc cells [5] = assay: Annexin-V-APC binding (early apoptosis), fluorescence microscopy; format: cell-based, human; conditions: 21 μM, TTFields-unexposed samples
Experimental: To test if the imposition of TTFields affects cell membrane properties, and thus membrane permeability, the effect of TTFields on the behavior of fluorescently tagged reagents that bind to the cellular membrane was determined. Initially, the impact of TTFields on the binding of Annexin-V-APC to the membrane of U87-MG/eGFP-fLuc cells was measured. Annexin-V-APC binding is a signature of early apoptosis which is characterized by ruffling of the membrane.

[6] = target: T1, purified firefly luciferase (Photinus pyralis, UniProt P08659); assay: Activity of purified firefly luciferase exposed to TTFields; format: biochemical; conditions: 200 kHz TTFields, 60 minutes after initiation of TTFields
T1 construct: purchased Sigma Aldrich Inc (St. Louis, MO) SRE0045-2MG
T1 sequence (P08659 whole entry): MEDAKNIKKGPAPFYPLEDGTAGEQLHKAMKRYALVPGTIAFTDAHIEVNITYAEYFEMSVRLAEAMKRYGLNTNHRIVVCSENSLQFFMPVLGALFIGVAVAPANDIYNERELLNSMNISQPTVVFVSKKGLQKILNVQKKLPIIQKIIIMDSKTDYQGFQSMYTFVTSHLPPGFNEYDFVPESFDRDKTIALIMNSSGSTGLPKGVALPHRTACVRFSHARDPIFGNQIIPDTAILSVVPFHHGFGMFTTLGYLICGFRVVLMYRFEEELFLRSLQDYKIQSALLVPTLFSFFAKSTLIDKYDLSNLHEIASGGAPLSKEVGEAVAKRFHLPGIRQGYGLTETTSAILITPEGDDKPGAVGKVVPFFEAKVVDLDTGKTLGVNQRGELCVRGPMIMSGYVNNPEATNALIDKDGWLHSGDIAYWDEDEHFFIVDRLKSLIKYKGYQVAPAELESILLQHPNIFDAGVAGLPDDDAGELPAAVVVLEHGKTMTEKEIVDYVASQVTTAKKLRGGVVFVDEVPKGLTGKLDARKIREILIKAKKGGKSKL

U87-MG cells [7] = assay: Timing of permeability to 7-AAD after alternating electric field, flow cytometry; format: cell-based, human; conditions: 300 kHz, 1.62 V/cm RMS, 24 hours; sample incubated with 7-AAD while subjected to the field (added 15 minutes prior to cessation)
Experimental: FIG. 7D depicts the results of an experiment to test how quickly the permeability drops back down after cessation of the alternating electric fields. More specifically, 7-Aminoactinomycin D (7-AAD) is a fluorescent chemical compound with a strong affinity for DNA. […] 7-AAD was introduced into samples at five different times: 15 minutes prior to the cessation of the alternating electric field; immediately after cessation of the alternating electric field […]. In each case, the cells were incubated with 7-AAD for 30 minutes after introduction of the 7-AAD, followed by flow cytometry analysis of the percentage of cells with increased accumulation of the fluorescent 7-AAD for each of the different timings.

[8] = test system: MDA-MB-435 human melanoma cell line cells; assay: Permeability of cell membranes to 7-AAD, flow cytometry; format: cell-based
Experimental: After this 15 minute period, alternating electric field application was terminated and the cells were incubated at room temperature for an additional 15 minutes.
After this 24 hour period, the alternating electric fields were turned off for 15 minutes, after which the 7-AAD was added. After waiting an additional 15 minutes, the percentage of cells with increased accumulation of the fluorescent 7-AAD was determined using flow cytometry.

U87-MG/eGFP-fLuc cells [9] = assay: Ethidium D uptake under TTFields; format: cell-based, human; conditions: 200 kHz TTFields vs no TTFields, p<0.0001
Text: Ethidium D permeates through both the plasma membrane and the nuclear membrane and intercalates into genomic DNA.

[10] = test system: human glioblastoma cells that have been modified to express luciferase
Experimental: U87-MG/eGFP-fLuc cells were seeded on Thermanox glass coverslips, allowed to settle and grow, and then subjected to either TTFields or no TTFields.
Bioluminescence imaging: For all bioluminescence work, we used genetically-modified GBM2, GBM39 and U87-MG whereby the glioblastoma cells were transfected with lentiviral vectors that expressed either firefly luciferase (fLuc for GBM39) or a fusion protein of GFP and firefly luciferase (GFP/fLuc for GBM2 and eGFP-fLuc for U87-MG) or a Renilla luciferase-Red Fluorescence protein fusion (RLuc-RL8 for KR158B).

glioblastoma patients = assay: Survival of glioblastoma patients treated with TTFields plus temozolomide; format: in vivo, human; conditions: TTFields plus temozolomide vs temozolomide alone, re-analysis of Ram et al.
Text: The treatment of glioblastoma (GBM) using alternating electric fields is a novel, validated therapy that has become an additional modality (after surgery chemoradiation and chemotherapy) for anti-cancer treatments. Intermediate frequency alternating electric fields (100-500 kHz) have been studied in detail. […] In the context of treating tumors, alternating electric fields at these frequencies are often referred to as “tumor treating fields” or “TTFields.”
Recurrence of GBM is inevitable and the median time to first recurrence despite standard therapy is approximately 7 months. […] TTFields compliance (≥75% vs. <75%) was an independent predictor of overall survival in the retrospective analysis of the full EF-14 trial dataset and the duration of use of TTFields was also found to affect overall survival. […] Namely, a correlation between the length of TTFields exposure and the duration of its effect on cell membrane permeability after cessation of TTFields was observed. At lengths of TTFields exposure of 0.5-3 h, the duration in BLI augmentation (compared to no TTFields conditions) lasted about 5 min. However, at TTFields exposures of 12-25 h, this difference in BLI between TTFields and no TTFields conditions lasted for more than 20 min.

GBM39 cells = assay: Drug sensitivity with TTFields; format: cell-based, human; conditions: TTFields for 3 days vs control without TTFields
[11] = TTFields for 3 days vs control without TTFields

For `NCC(=O)CCC(=O)O` [5-ALA, 5-aminolevulinic acid], the “5-ALA uptake in the GBM cells compared to the fibroblast cells (ratio of PpIX fluorescence intensity)” value ([1]; TTFields exposure (by 24 h, p=0.043) vs no TTFields) was “significantly increased”, the “rate of PpIX fluorescence intensity increase” value ([1]; TTFields-exposed vs unexposed co-cultures, 2, 6 and 24 h, p<0.001) was “significantly augmented” and the “uptake of 5-ALA (PpIX fluorescence)” value (U87-MG cells [2]; 6 h of TTFields exposure vs no TTFields, p=0.047) was “significantly increased uptake”. For the same compound, the “uptake of 5-ALA (PpIX fluorescence)” value (U87-MG cells [2]; 24 h of TTFields exposure vs no TTFields, p=0.011) was “increase was maintained”.

In the case of `CCc1c2c(nc3ccc(OC(=O)N4CCC(N5CCCCC5)CC4)cc13)-c1cc3c(c(=O)n1C2)COC(=O)[C@]3(O)CC` [Irinotecan], the “synergy of the combination with TTFields” value (GBM39/Luc cells) is reported as “synergy was found” and the “sensitivity of cells to various concentrations of drug” value (shortened to “sensitivity of cells”) (GBM39/Luc cells; [11]) is reported as “improves the sensitivity”.

With `COc1cccc2c1C(=O)c1c(O)c3c(c(O)c1C2=O)C[C@@](O)(C(=O)CO)C[C@@H]3O[C@H]1C[C@H](N)[C@H](O)[C@H](C)O1` [doxorubicin] the “intracellular accumulation of doxorubicin” value [3] was “increased”, the “intracellular accumulation of doxorubicin” value [4] was “increased” and the “increase of intracellular accumulation of doxorubicin” value (MES-SA cells) was “more than 2 X”. The “synergy of the combination with TTFields” value (MDA-MB-235 cells) was “Evidence of synergy” and the “sensitivity of cells” value (MDA-MB-235 cells; [11]) was “improves the sensitivity”.

With `CC1=C(CO)C(=O)O[C@@H]([C@@H](C)[C@H]2CC[C@H]3[C@@H]4C[C@H]5O[C@]56[C@@H](O)C=CC(=O)[C@]6(C)[C@H]4CC[C@]23C)C1` [Withaferin A] the “growth of human glioblastoma cells” value (human glioblastoma cells) was “synergistically inhibited the growth”, the “synergy of the combination with TTFields” value (U87-MG/GFP-Luc cells) was “synergy was found” and the “Annexin-V-APC binding (positive control for apoptosis)” value (U87-MG/eGFP-fLuc cells [5]) was “could be visualized”. The “synergy of the combination with TTFields” value (pcGBM2/GFP-Luc cells) was “synergy was found” and the “synergy of the combination with TTFields” value (GBM39/Luc cells) was “synergy was found”.

With “firefly luciferase: purified firefly luciferase (SRE0045-2MG) purchased from Sigma Aldrich” the “loss in enzymatic activity” value [6] was over 1000 fold.

With `Cc1c2oc3c(C)c(N)cc(C(=O)N[C@@H]4C(=O)N[C@H](C(C)C)C(=O)N5CCC[C@H]5C(=O)N(C)CC(=O)N(C)[C@@H](C(C)C)C(=O)O[C@@H]4C)c3nc-2c(C(=O)N[C@@H]2C(=O)N[C@H](C(C)C)C(=O)N3CCC[C@H]3C(=O)N(C)CC(=O)N(C)[C@@H](C(C)C)C(=O)O[C@@H]2C)c(N)c1=O` [7-AAD, 7-Aminoactinomycin D] the “percentage of cells with increased accumulation of 7-AAD” value (U87-MG cells [7]) was “significant increase in accumulation”, the “percentage of cells with increased accumulation of 7-AAD” value ([8]; 150 kHz, 1.62 V/cm, 24 hours, 7-AAD added 15 minutes after fields were turned off) was about 20% and the “percentage of cells with increased accumulation of 7-AAD” value ([8]; 150 kHz, 1.62 V/cm, 24 hours, 7-AAD added for the last 15 minutes of the field) was about 66%. For the same compound, the “percentage of cells with increased accumulation of 7-AAD” value ([8]; control, same conditions, alternating electric fields not applied) was “less than 5%”.

`CC[n+]1c(-c2ccccc2)c2cc(N)ccc2c2ccc(N)cc21` [ethidium D, ethidium bromide] was tested, and the “ethidium D uptake” value (U87-MG/eGFP-fLuc cells [9]) was “significantly increased”.

In the case of `Oc1ccc(Cc2nc3c(Cc4ccccc4)nc(-c4ccc(O)cc4)cn3c2O)cc1` [coelenterazine], the “permeation of the substrates through the plasma membrane (greater bioluminescence)” value [10] is reported as “increased permeation”.

For `Cn1nnc2c(C(N)=O)ncn2c1=O` [Temozolomide], the “percent increase in overall survival” value (glioblastoma patients; after 1 year of TTFields exposure) was 32% and the “percent increase in overall survival” value (glioblastoma patients; after 5 years of TTFields exposure) was 551%.

With `O=NN(CCCl)C(=O)NC1CCCCC1` [Lomustine] the “sensitivity of cells” value (U87-MG/GFP-Luc cells; [11]) was “improves the sensitivity”, the “sensitivity of cells” value (pcGBM2/GFP-Luc cells; [11]) was “improves the sensitivity” and the “sensitivity of cells” value (GBM39 cells) was “improves the sensitivity”.
